Results taken from patent publication US20050032822A1, “Dithiocarbamate derivatives and their use as antibacterial agents” (priority 2001, published 2005).
In brackets after ≈: the same amount, converted by molar mass.

What was measured:
Assay type in all cases: cell-based
Conditions in all cases: Mueller-Hinton broth
[1] = test system: multiresistent staphylococci (MRSA) strain 134/93; assay: MIC, micro broth dilution, MRSA 134/93
[2] = test system: multiresistent staphylococci (MRSA) strain 994/93; assay: MIC, micro broth dilution, MRSA 994/93
[3] = test system: Mycobacterium smegmatis SG 987; assay: MIC, micro broth dilution, M. smegmatis SG 987
M aureum SB66 = assay: MIC, micro broth dilution, M. aureum SB66
M. vaccae IMET 1010670 = assay: MIC, micro broth dilution, M. vaccae IMET 10670
M. fortuitum B = assay: MIC, micro broth dilution, M. fortuitum B

| Compound | minimal inhibitory concentrations MIC, 134/93 [1] | minimal inhibitory concentrations MIC, 994/93 [2] | minimal inhibitory concentrations MIC, SG 987 [3] | minimal inhibitory concentrations MIC, SB 66 (M aureum SB66) | minimal inhibitory concentrations MIC, 10670 (M. vaccae IMET 1010670) | minimal inhibitory concentrations MIC, M. fort. (M. fortuitum B) |
| --- | --- | --- | --- | --- | --- | --- |
| CN(C)c1ncnc(SC(=S)N2CCCC2)c1[N+](=O)[O-] [Subst. Nr. 13, 4-dimethylamino-6-tetramethylenedithiocarbamoyl-5-nitropyrimidine] | 3.12 µg/mL (≈ 9.96 µM) | 1.56 µg/mL (≈ 4.98 µM) | 3.12 µg/mL (≈ 9.96 µM) | 3.12 µg/mL (≈ 9.96 µM) | 1.56 µg/mL (≈ 4.98 µM) | 1.56 µg/mL (≈ 4.98 µM) |
| CN(C)C(=S)Sc1ncnc(N(C)C)c1[N+](=O)[O-] [Subst. Nr. 8, 4-dimethylamino-6-dimethyldithiocarbamoyl-5-nitropyrimidine] | 3.12 µg/mL (≈ 10.9 µM) | 6.52 µg/mL (≈ 22.7 µM) | 12.5 µg/mL (≈ 43.5 µM) | 6.25 µg/mL (≈ 21.7 µM) | 3.12 µg/mL (≈ 10.9 µM) | 12.5 µg/mL (≈ 43.5 µM) |
| COc1ncnc(SC(=S)N(C)C)c1[N+](=O)[O-] [Subst. Nr. 14, 4-methoxy-6-dimethyldithiocarbamoyl-5-nitropyrimidine] | 6.25 µg/mL (≈ 22.8 µM) | 3.12 µg/mL (≈ 11.4 µM) | 3.12 µg/mL (≈ 11.4 µM) | 0.8 µg/mL (≈ 2.92 µM) | 3.12 µg/mL (≈ 11.4 µM) | 0.8 µg/mL (≈ 2.92 µM) |
| NC(=O)c1cc([N+](=O)[O-])cc([N+](=O)[O-])c1SC(=S)N1CCCCCC1 [Subst. Nr. 16, 3,5-dinitro-2-hexamethylenedithiocarbamoylbenzamide] | 6.25 µg/mL (≈ 16.3 µM) | 12.5 µg/mL (≈ 32.5 µM) | 6.25 µg/mL (≈ 16.3 µM) | 6.25 µg/mL (≈ 16.3 µM) | 0.1 µg/mL (≈ 0.26 µM) | 0.8 µg/mL (≈ 2.08 µM) |
| CCN(CC)C(=S)Sc1c(C#N)cc([N+](=O)[O-])cc1[N+](=O)[O-] [Subst. Nr. 3, 3,5-dinitro-2-diethyldithiocarbamoylbenzonitril] | 3.12 µg/mL (≈ 9.17 µM) | 6.25 µg/mL (≈ 18.4 µM) | 12.5 µg/mL (≈ 36.7 µM) | 12.5 µg/mL (≈ 36.7 µM) | 3.12 µg/mL (≈ 9.17 µM) | 6.25 µg/mL (≈ 18.4 µM) |
| CNc1ncnc(SC(=S)N2CCCC2)c1[N+](=O)[O-] [Subst. Nr. 12, 4-methylamino-6-tetramethylenedithiocarbamoyl-5-nitropyrimidine] |  |  | 3.12 µg/mL (≈ 10.4 µM) | 1.56 µg/mL (≈ 5.21 µM) | 0.8 µg/mL (≈ 2.67 µM) | 0.8 µg/mL (≈ 2.67 µM) |
| CCN(CC)C(=S)Sc1ncnc(NC)c1[N+](=O)[O-] [Subst. Nr. 4, 4-methylamino-6-diethyldithiocarbamoyl-5-nitropyrimidine] | 0.78 µg/mL (≈ 2.59 µM) | 1.56 µg/mL (≈ 5.18 µM) | 6.25 µg/mL (≈ 20.7 µM) | 6.24 µg/mL (≈ 20.7 µM) | 1.56 µg/mL (≈ 5.18 µM) | 6.25 µg/mL (≈ 20.7 µM) |
| CNc1ncnc(SC(=S)N(C)C)c1[N+](=O)[O-] [Subst. Nr. 7, 4-methylamino-6-dimethyldithiocarbamoyl-5-nitropyrimidine] | 1.56 µg/mL (≈ 5.71 µM) | 3.12 µg/mL (≈ 11.4 µM) | 12.5 µg/mL (≈ 45.7 µM) | 6.25 µg/mL (≈ 22.9 µM) | 3.12 µg/mL (≈ 11.4 µM) | 6.25 µg/mL (≈ 22.9 µM) |
| CCCOc1ncnc(SC(=S)N(C)C)c1[N+](=O)[O-] [Subst. Nr. 11, 4-propoxy-6-dimethyldithiocarbamoyl-5-nitropyrimidine] | 0.8 µg/mL (≈ 2.65 µM) | 0.8 µg/mL (≈ 2.65 µM) | 6.25 µg/mL (≈ 20.7 µM) | 1.56 µg/mL (≈ 5.16 µM) | 0.8 µg/mL (≈ 2.65 µM) | 1.56 µg/mL (≈ 5.16 µM) |
| NC(=O)c1cc([N+](=O)[O-])cc([N+](=O)[O-])c1SC(=S)N1CCCC1 [Subst. Nr. 17, 3,5-dinitro-2-tetramethylenedithiocarbamoylbenzamide] | 25 µg/mL (≈ 70.1 µM) | 12.5 µg/mL (≈ 35.1 µM) | 50 µg/mL (≈ 140 µM) | 6.25 µg/mL (≈ 17.5 µM) | 0.4 µg/mL (≈ 1.12 µM) | 6.25 µg/mL (≈ 17.5 µM) |
| CCN(CC)C(=S)Sc1ncnc(N(C)O)c1[N+](=O)[O-] [Subst. Nr. 5, 4-methylhydroxyamino-6-diethyldithiocarbamoyl-5-nitropyrimidine] | 1.56 µg/mL (≈ 4.91 µM) | 3.12 µg/mL (≈ 9.83 µM) | 6.25 µg/mL (≈ 19.7 µM) | 12.5 µg/mL (≈ 39.4 µM) | 3.12 µg/mL (≈ 9.83 µM) | 6.25 µg/mL (≈ 19.7 µM) |
| O=[N+]([O-])c1cnc(SC(=S)N2CCCC2)c([N+](=O)[O-])c1 [Subst. Nr. 18, 3,5-dinitro-2-tetramethylenedithiocarbamoylpyridine] | 1.56 µg/mL (≈ 4.96 µM) | 12.5 µg/mL (≈ 39.8 µM) | 6.25 µg/mL (≈ 19.9 µM) | 3.12 µg/mL (≈ 9.93 µM) | 3.12 µg/mL (≈ 9.93 µM) | 3.12 µg/mL (≈ 9.93 µM) |
| CCOc1nc(C)nc(SC(=S)N(CC)CC)c1[N+](=O)[O-] [Subst. Nr. 6, 4-ethoxy-2-methyl-6-diethyldithiocarbamoyl-5-nitropyrimidine] | 3.12 µg/mL (≈ 9.44 µM) | 3.12 µg/mL (≈ 9.44 µM) | 12.5 µg/mL (≈ 37.8 µM) | 12.5 µg/mL (≈ 37.8 µM) | 3.12 µg/mL (≈ 9.44 µM) | 12.5 µg/mL (≈ 37.8 µM) |
| CCOc1nc(C)nc(SC(=S)N2CCCC2)c1[N+](=O)[O-] [Subst. Nr. 10, 4-ethoxy-2-methyl-6-tetramethylenedithiocarbamoyl-5-nitropyrimidine] | 3.12 µg/mL (≈ 9.5 µM) | 0.8 µg/mL (≈ 2.44 µM) | 12.5 µg/mL (≈ 38.1 µM) | 25 µg/mL (≈ 76.1 µM) | 12.5 µg/mL (≈ 38.1 µM) | 50 µg/mL (≈ 152 µM) |
| 4-isopropylamino-6-diethyldithiocarbamoyl-5-nitropyrimidine [Subst. Nr. 1] | 3.12 µg/mL | 25 µg/mL | 12.5 µg/mL | 25 µg/mL | 3.12 µg/mL | 25 µg/mL |
| COc1ncnc(SC(=S)N2CCCC2)c1[N+](=O)[O-] [Subst. Nr. 15, 4-methoxy-6-tetramethylenedithiocarbamoyl-5-nitropyrimidine] | 3.12 µg/mL (≈ 10.4 µM) | 3.12 µg/mL (≈ 10.4 µM) | 3.12 µg/mL (≈ 10.4 µM) | 1.56 µg/mL (≈ 5.19 µM) | 0.8 µg/mL (≈ 2.66 µM) | 1.56 µg/mL (≈ 5.19 µM) |
| CCN(CC)C(=S)Sc1ncnc(NC2CC2)c1[N+](=O)[O-] [Subst. Nr. 2, 4-cyclopropylamino-6-diethyldithiocarbamoyl-5-nitropyrimidine] | 1.56 µg/mL (≈ 4.76 µM) | 3.12 µg/mL (≈ 9.53 µM) | 6.25 µg/mL (≈ 19.1 µM) | 12.5 µg/mL (≈ 38.2 µM) | 3.12 µg/mL (≈ 9.53 µM) | 6.25 µg/mL (≈ 19.1 µM) |
| CN(C)C(=S)Sc1c(C#N)cc([N+](=O)[O-])cc1[N+](=O)[O-] [Subst. Nr. 9, 3,5-dinitro-2-dimethyldithiocarbamoylbenzonitrile] | 0.4 µg/mL (≈ 1.28 µM) | 0.4 µg/mL (≈ 1.28 µM) | 3.12 µg/mL (≈ 9.99 µM) | 1.56 µg/mL (≈ 4.99 µM) | 3.12 µg/mL (≈ 9.99 µM) | 6.25 µg/mL (≈ 20 µM) |
